Our source for the inhibition and IC50 values is US20250145589A1, “PYRIDINE DERIVATIVE AND USE THEREOF” (SICHUAN HUIYU PHARMACEUTICAL CO., LTD., priority 2021, published 2025).

Test [1] relates to NCI-H358-AMGR drug-resistant cell line. Description: NCI-H358-AMGR drug-resistant cell proliferation inhibitory activity test. The class given is cell-based. The note with it: for IC50: 72 h, NCI-H358-AMGR drug-resistant cells, 3 days incubation, CellTiter-Glo. The procedure: Test Example 6t Generation of NCI-H358-AMGR Drug-Resistant Cell Line
NCI-H358 cells were seeded and cultured at 50 to 70% confluence in six-well plate with RPMI-640 (10% FBS) medium at 37° C. with 5%4 CO2. AMG510 was added for induction at three starting concentrations of 1 nM, 10 nM and 50 nM, and the medium containing the same concentration of AMG510 was replaced every 3 days. Cells were passaged once they reached confluence. After every, two passages at a given concentration of drug, the concentration was increased in a 3-old increment until final concentrations of 1 μM for AMG510 was achieved.
(§1) NCI-H358-AMGR cells in logarithmic growth phase were collected and seeded into a clear-bottom 96-well plate at a density of 4×10^3 cells per well in 80 μL of medium, and then incubated overnight at 37° C. with 5% CO2. The compounds were serially diluted 5-fold in DMSO to obtain 8 concentrations, and then further diluted with RPMI-640) (10% FBS) cell culture medium to obtain the working solutions (5×), 20 μL of each working solution was added to the cell culture supernatant in each well, and the plate was further incubated for 3 days at 37° C. with 5% CO2. The plate was then equilibrated with CellTiter-Glo® reagent at room temperature (25° C.) for 10-30 minutes. After aspirating 50 μL of the medium, 50 μL of CellTiter-Glo®, reagent was added. The cells were thoroughly mixed with the CellTiter-Glo®, reagent using a microplate shaker for 2 minutes, and then incubated at room temperature for 10 minutes. The %-well plate was placed in a multi-mode microplate reader to record the luminescence values (RLU).
(§2) The inhibitory rate was calculated using the following formula: […]
Data were analyzed using GraphPad Prism for IC50 values (Note: The negative control refers to the group without inhibitor).
On the technique in general: In ATP-based viability assays light output follows the ATP content of the culture.

In test [2] the test system is MIA PaCa-2-AMGR drug-resistant cell line. Description: MIA PaCa-2-AMGR drug-resistant cell proliferation inhibitory activity test. Type of test: cell-based. The note with it: for IC50: 72 h, MIA PaCa-2-AMGR drug-resistant cells, 3 days incubation, CellTiter-Glo. The procedure: Test Example 7: Generation of MIA PaCa-2-AMGR drug-resistant cell line
MIA PaCa-2 cells were seeded and cultured at 50 to 70% confluence in six-well plate with DMEM (10% FBS+2.5% horse serum) medium at 37° C. with 5% CO2. AMG510 was added for induction at three starting concentrations of 1 nM, 10 nM and 50 nM, and the medium containing the same concentration of AMG510 was replaced every 3 days. Cells were passaged once they reached confluence. After every two passages at a given concentration of drug, the concentration was increased in a 3-fold increment until final concentrations of 1 μM for AMG510 was achieved.
as §1, with “MIA PaCa-2-AMGR” for “NCI-H358-AMGR”, “DMEM” for “RPMI-640)”, “FBS+2.5% horse serum)” for “FBS)”, “CellTiter-Glo®” for “CellTiter-Glo®,”, “96-well” for “%-well”
as §2
Data were analyzed using GraphPad Prism for IC50 values (Note: The negative control refers to the group without inhibitor) The data were presented m Table 9

The target in test [3] is PI3Kα (Homo sapiens (Human), UniProt P42336). Description: Inhibition of PI3Kα efficacy assay (ADP-Glo kinase assay). The class given is biochemical. The note with it: read-out: PI3Kα inhibitory activity (IC50). A digest of the protocol: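 Eight five-fold dilutions of compound (2 mM DMSO stock) tested; kinase reaction with PI and ATP ran 60 min at RT, followed by ADP-Glo and detection reagent steps of 40 min each. Four-parameter logistic fitting gave IC50 values.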
Sequence of PI3Kα (P42336 whole entry): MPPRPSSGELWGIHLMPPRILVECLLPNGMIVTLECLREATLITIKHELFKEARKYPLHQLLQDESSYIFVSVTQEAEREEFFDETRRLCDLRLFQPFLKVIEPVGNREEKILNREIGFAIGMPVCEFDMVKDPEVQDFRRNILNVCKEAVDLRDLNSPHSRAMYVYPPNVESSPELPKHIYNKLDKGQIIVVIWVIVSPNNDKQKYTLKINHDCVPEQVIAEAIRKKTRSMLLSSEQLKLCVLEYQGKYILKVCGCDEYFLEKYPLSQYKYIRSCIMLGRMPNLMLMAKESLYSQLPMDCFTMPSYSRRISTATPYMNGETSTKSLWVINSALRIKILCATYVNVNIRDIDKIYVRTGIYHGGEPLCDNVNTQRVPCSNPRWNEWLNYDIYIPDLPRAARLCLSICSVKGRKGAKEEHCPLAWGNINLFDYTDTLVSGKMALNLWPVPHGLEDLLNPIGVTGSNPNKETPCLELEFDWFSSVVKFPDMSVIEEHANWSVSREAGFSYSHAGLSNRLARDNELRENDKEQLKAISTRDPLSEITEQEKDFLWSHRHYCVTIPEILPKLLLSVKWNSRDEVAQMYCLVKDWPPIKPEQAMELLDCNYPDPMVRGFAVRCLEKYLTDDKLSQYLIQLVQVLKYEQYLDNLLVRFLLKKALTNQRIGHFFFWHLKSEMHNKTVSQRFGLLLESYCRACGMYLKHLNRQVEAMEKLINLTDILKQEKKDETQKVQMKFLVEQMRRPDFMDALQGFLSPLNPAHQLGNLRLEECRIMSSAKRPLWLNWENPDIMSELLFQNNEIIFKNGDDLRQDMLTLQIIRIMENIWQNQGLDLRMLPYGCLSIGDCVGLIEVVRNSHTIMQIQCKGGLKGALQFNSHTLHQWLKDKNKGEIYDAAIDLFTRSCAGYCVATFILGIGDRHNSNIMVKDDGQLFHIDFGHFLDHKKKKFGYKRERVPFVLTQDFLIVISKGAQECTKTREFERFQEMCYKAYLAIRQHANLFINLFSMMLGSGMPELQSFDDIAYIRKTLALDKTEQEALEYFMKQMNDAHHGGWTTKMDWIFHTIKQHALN
Sequence of PI3Kα (P27986 whole entry partner): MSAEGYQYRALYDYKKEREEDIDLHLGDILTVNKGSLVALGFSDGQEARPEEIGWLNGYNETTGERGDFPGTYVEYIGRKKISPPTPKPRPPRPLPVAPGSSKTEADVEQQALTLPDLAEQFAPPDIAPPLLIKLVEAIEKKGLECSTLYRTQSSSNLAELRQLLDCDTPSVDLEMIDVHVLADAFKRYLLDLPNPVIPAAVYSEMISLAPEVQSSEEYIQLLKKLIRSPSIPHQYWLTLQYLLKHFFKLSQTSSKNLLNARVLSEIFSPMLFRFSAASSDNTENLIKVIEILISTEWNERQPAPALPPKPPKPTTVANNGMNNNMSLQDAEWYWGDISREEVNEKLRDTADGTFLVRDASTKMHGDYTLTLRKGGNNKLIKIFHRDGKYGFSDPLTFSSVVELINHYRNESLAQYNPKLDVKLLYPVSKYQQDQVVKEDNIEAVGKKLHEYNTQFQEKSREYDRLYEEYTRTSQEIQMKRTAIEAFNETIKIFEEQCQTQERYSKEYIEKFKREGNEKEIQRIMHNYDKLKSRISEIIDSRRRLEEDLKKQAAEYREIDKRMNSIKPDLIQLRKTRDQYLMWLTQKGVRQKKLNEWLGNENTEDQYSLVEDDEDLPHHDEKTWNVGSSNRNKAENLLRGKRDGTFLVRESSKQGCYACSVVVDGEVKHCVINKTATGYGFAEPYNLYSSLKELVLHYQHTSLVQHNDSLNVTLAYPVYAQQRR
In general terms: ADP-Glo turns the ADP formed in a reaction into a luminescent signal.

The test system of test [4] is NCI-H358 cells (KRAS G12C mutant). The experiment in a line: NCI-H358 cell proliferation inhibition (CellTiter-Glo). Type of test: cell-based. The settings on record: Homo sapiens, NCI-H358, 72 h; H358 cells (G12C mutation), 3 days, Table 6; read-out: NCI-H358 (IC50).
Test [5] relates to MIA PaCa-2 cells (KRAS G12C mutant). Description: MIA PaCa-2 cell anti-proliferation (CellTiter-Glo). Type of test: cell-based. The note with it: Homo sapiens. The protocol: The number of viable cells was determined using the CellTiter-Glo® assay to evaluate the anti-proliferation efficacy of compounds. […] The compounds were serially diluted 4-fold in DMSO to obtain 9 concentrations, and then further diluted with DMEM (10% FBS+2.5% horse serum+1% penicillin/streptomycin) cell culture medium to obtain the working solutions (2×), 15 μL of each working solution was added to the cell culture supernatant in each well, and the cells were further incubated for 3 days at 37° C. with 5% CO2. The plate was then equilibrated with CellTiter-Glo® reagent at room temperature (25° C.) for 30 minutes. After adding 25 μL of CellTiter-Glo®, reagent, the cells were thoroughly mixed with the CellTiter-Glo® reagent using a microplate shaker for 2 minutes, and then incubated at room temperature for at least 30 minutes. […] Data were analyzed using GraphPad Prism for IC50 values (Note: The negative control refers to the group without inhibitor).

In test [6] the target is PI3Kδ (Homo sapiens (Human), UniProt O00329). Description: Inhibition of PI3Kδ efficacy assay (ADP-Glo kinase assay). The class given is biochemical. The note with it: read-out: PI3Kδ inhibitory activity (IC50). The method, boiled down:
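Luminescent ADP-Glo readout of PI3Kδ: after a 60 min RT reaction with PI/ATP substrate, ATP depletion (40 min) and ADP detection (40 min) steps followed. Compounds tested as eight five-fold serial dilutions; inhibition rates fitted to log(inhibitor) vs. response, variable slope, for IC50.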

Setting [7] is: 72 h, MIA Paca-2 cells, 3 days, Table 7, read-out: MIA PaCa-2 (IC50).

One may read the inhibition as the relative decrease from the control value, in per cent. Usually IC50 stands for the point on the concentration scale where inhibition reaches its midpoint.

Read-outs that look alike come from different tables or passages of the source.

Sequence of PI3Kδ (O00329 whole entry): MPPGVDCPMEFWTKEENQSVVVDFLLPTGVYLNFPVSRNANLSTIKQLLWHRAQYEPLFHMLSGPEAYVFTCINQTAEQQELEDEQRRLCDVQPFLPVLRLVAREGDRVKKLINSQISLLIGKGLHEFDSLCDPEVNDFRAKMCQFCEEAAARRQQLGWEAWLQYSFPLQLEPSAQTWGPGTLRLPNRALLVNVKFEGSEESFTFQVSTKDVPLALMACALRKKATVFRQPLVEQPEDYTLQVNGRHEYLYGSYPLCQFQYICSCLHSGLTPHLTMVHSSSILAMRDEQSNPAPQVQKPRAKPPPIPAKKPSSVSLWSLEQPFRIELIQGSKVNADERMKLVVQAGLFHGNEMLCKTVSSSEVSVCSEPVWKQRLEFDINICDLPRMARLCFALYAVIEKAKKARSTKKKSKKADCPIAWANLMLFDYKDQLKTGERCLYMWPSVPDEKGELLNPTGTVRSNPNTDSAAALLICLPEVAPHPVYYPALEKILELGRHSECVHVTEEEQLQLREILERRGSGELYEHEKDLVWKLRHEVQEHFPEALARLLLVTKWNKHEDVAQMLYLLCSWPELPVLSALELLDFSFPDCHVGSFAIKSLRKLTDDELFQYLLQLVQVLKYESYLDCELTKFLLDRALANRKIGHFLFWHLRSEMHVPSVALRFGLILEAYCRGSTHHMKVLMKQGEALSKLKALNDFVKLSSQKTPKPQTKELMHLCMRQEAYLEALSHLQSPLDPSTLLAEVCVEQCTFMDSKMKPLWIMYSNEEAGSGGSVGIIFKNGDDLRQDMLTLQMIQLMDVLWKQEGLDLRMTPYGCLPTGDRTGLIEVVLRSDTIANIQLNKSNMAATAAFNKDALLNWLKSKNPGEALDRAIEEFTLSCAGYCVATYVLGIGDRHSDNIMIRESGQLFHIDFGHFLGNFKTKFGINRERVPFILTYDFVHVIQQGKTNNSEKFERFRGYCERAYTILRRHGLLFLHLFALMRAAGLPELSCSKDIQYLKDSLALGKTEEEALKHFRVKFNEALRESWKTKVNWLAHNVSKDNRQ
Sequence of PI3Kδ (P27986 whole entry partner): as the sequence (P27986 whole entry partner) above

On to `C=CC(=O)N1CCN(c2nc(=O)n(-c3c(C)ccnc3C(C)C)c3nc(-c4c(O)cccc4F)c(F)cc23)[C@@H](C)C1` [AMG-510, reference compound], for which the inhibition at 10 µM is at most 50% in test [1] (10 μM, NCI-H358-AMGR, read-out: inhibition rate at the maximum dose) and under 50% in test [2] (10 μM, MIA PaCa-2-AMGR, read-out: inhibition rate at the maximum dose). For the same molecule, the IC50 in test [1] and in test [2] was over 10000 nM in each case.

Regarding `C=CC(=O)N1CCN(c2ncnc3ccc(-c4cnc(OC)c(NS(=O)(=O)c5ccc(F)cc5F)c4)cc23)CC1` [Example 1, N-(5-(4-(4-acryloylpiperazin-1-yl)quinazolin-6-yl)-2-methoxypyridin-3-yl)-2,4-difluorobenzenesulfonamide], the IC50 in test [3] (Table 1) was 0.26 nM; in test [4] it was 21 nM; in test [5] (setting [7]), 98 nM; in test [1], 27 nM; in test [2], 36 nM.

On to `COc1ncc(-c2ccc3ncnc(N4CCN(C(=O)/C=C/C(C)=O)C[C@@H]4C)c3c2)cc1NS(=O)(=O)c1ccc(F)cc1F` [Example 8, (S,E)-2,4-difluoro-N-(2-methoxy-5-(4-(2-methyl-4-(4-oxopent-2-enoyl)piperazin-1-yl)quinazolin-6-yl)pyridin-3-yl)benzenesulfonamide], for which the IC50 in test [4] came out at 91.2 nM; in test [5] (setting [7]), 73.6 nM; in test [1], 81.6 nM; in test [2], 250 nM.

On to `COc1ncc(-c2ccc3ncnc(N4CCC5(CN(C(=O)/C=C/C(C)=O)C5)C4)c3c2)cc1NS(=O)(=O)c1ccc(F)cc1F` [Example 13, (E)-2,4-difluoro-N-(2-methoxy-5-(4-(2-(4-oxopent-2-enoyl)-2,6-diazaspiro[3.4]octan-4-yl)quinazolin-6-yl)pyridin-3-yl)benzenesulfonamide], for which the half-maximal inhibitory concentration (IC50) in test [4] came to 73.3 nM; in test [5] (setting [7]), 144 nM; in test [2] it was 433 nM.

`C=C(F)C(=O)N1CCN(c2ncnc3ccc(-c4cnc(OC)c(NS(=O)(=O)c5ccc(F)cc5F)c4)cc23)CC1` [Example 59, 2,4-difluoro-N-(5-(4-(4-(2-fluoroacryloyl)piperazin-1-yl)quinazolin-6-yl)-2-methoxypyridin-3-yl)benzenesulfonamide]: the IC50 in test [3] (Table 2) is 3.3 nM; in test [6] (Table 2), 13.1 nM; in test [4], 30.6 nM; in test [2] it was 141 nM.

For the molecule `C=C(C(=O)N1CCN(c2ncnc3ccc(-c4cnc(OC)c(NS(=O)(=O)c5ccc(F)cc5F)c4)cc23)CC1)C(C)O` (stereo not shown) [Example 167, 2,4-difluoro-N-(5-(4-(4-(3-hydroxy-2-methylenebutanoyl)piperazin-1-yl)quinazolin-6-yl)-2-methoxypyridin-3-yl)benzenesulfonamide], the half-inhibitory concentration (IC50) in test [3] (Table 4) is 2.2 nM; in test [6] (Table 4) it was 11.8 nM; in test [4], 36.5 nM; in test [5] (MIA PaCa-2, 72 h, read-out: MIA PaCa-2 (IC50, nM)) it was 112 nM; in test [1] it was 73 nM.

As to `COc1ccc(S(=O)(=O)Nc2cc(-c3ccc4ncnc(N5CCN(C(=O)/C=C/C(C)=O)CC5)c4c3)cnc2OC)c(F)c1` [Example 185, (E)-2-fluoro-4-methoxy-N-(2-methoxy-5-(4-(4-(4-oxopent-2-enoyl)piperazin-1-yl)quinazolin-6-yl)pyridin-3-yl)benzene-sulfonamide], the IC50 came to 1.6 nM in test [3] (Table 4); 69.4 nM in test [4]; 104 nM in test [5] (setting [7]); 131 nM in test [1]; 45.7 nM in test [2].

As for `COc1ncc(-c2ccc3ncnc(N4CCN(C(=O)/C=C/C(C)=O)CC4)c3c2)cc1NS(=O)(=O)c1c(C)cccc1F` [Example 186, (E)-2-fluoro-N-(2-methoxy-5-(4-(4-(4-oxopent-2-enoyl)piperazin-1-yl)quinazolin-6-yl)pyridin-3-yl)-6-methyl-benzene-sulfonamide], the IC50 was 2.4 nM in test [3] (Table 4); 25.4 nM in test [4]; 52.9 nM in test [5] (setting [7]); 43.9 nM in test [1]; 31.3 nM in test [2].

For `COc1ncc(-c2ccc3ncnc(N4CCN(C(=O)/C=C/C(C)=O)CC4)c3c2)cc1NS(=O)(=O)c1ccc(F)c2ccccc12` [Example 187, (E)-4-fluoro-N-(2-methoxy-5-(4-(4-(4-oxopent-2-enoyl)piperazin-1-yl)quinazolin-6-yl)pyridin-3-yl)naphthalene-1-sulfonamide], the 50% inhibitory concentration (IC50) in test [3] (Table 4) worked out at 4.6 nM; in test [4], 140 nM; in test [5] (setting [7]) it was 173 nM; in test [1] it was 373 nM; in test [2], 224 nM.

In the case of `COc1ncc(-c2ccc3ncnc(N4[C@H](C)CN(C(=O)/C=C/C(C)=O)C[C@@H]4C)c3c2)cc1NS(=O)(=O)c1ccccc1F` [Example 193, N-(5-(4-((2R,6S)-2,6-dimethyl-4-((E)-4-oxopent-2-enoyl)piperazin-1-yl)quinazolin-6-yl)-2-methoxypyridin-3-yl)-2-fluorobenzenesulfonamide], the half-maximal inhibitory concentration (IC50) in test [3] (Table 4) was determined as 2.8 nM; in test [4], 52.7 nM; in test [5] (setting [7]), 115 nM; in test [1], 21.6 nM; in test [2], 66.2 nM.

As for `COc1ncc(-c2ccc3ncnc(N4CCN(C(=O)/C=C/C(C)=O)CC4)c3n2)cc1NS(=O)(=O)c1cnccc1C` [Example 223, (E)-N-(2-methoxy-5-(4-(4-(4-oxopent-2-enoyl)piperazin-1-yl)pyrido[3,2-d]pyrimidin-6-yl)pyridin-3-yl)-4-methyl-pyridine-3-sulfonamide], the IC50 in test [4] was found to be 135 nM; in test [5] (setting [7]), 94.4 nM; in test [1], 85.2 nM; in test [2], 63.1 nM.
